Reference: US20110105389A1 (priority 2009, published 2011)

What was measured:
[1] = target: T1, human ghrelin receptor (GRLN, growth hormone secretagogue receptor, hGHS-R1a) (Homo sapiens, UniProt Q92847); experiment: Competitive radioligand binding assay (ghrelin receptor), Method B1; details: Ghrelin receptor binding activity, Method B1
T1 construct: purchased PerkinElmer BioSignal #RBHGHSM, lot#1887; host or cells: HEK-293 cells, stably transfected (membranes)
Summary of the method: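 Filtration competition format: bound radioactivity counted after GF/C harvesting and cold 50 mM Tris-HCl washes. Incubation lasted 30 min at room temperature in Hepes pH 7.4 buffer with Ca2+, Mg2+, EDTA and 0.4% BSA (DMSO ≤0.1% final); values from variable-slope non-linear regression.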

[2] = target: T2, GHS-R1a receptor (HEK293 cells expressing GHS-R1a receptor) (Homo sapiens, UniProt Q92847); experiment: Fluorescence functional assay (ghrelin receptor), Method B2, agonist and antagonist mode; format: cell-based; details: functional activity as an antagonist at the ghrelin receptor, Methods B2 and B3
T2 construct: host or cells: HEK293
Summary of the method: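 Calcium flux read by ImageTrak epifluorescence in HEK293 cells stably expressing GHS-R1a, loaded 1 h at 37 °C with Calcium-3 dye; buffer HBSS/20 mM Hepes, pH 7.4, with probenecid and BSA. Agonists injected after 10 s baseline, read 50 s more; antagonists 3 min. Sigmoidal fits gave EC50 or IC50.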

[3] = system: rat stomach fundus strips; experiment: Ex-vivo potency evaluation on the rat stomach fundus (inhibition of ghrelin-induced contractility), Method B10; details: EFS
Protocol: B10. Ex-vivo Potency Evaluation on the Rat Stomach Fundus
Fundus strips (approximately 0.4×1 cm) were cut from the stomach of adult male Wistar rats parallel to the circular muscle fibers. They were placed between two platinum ring electrodes, 1 cm apart (Radnoti, ADlnstruments, USA) in 10 ml tissue baths containing Krebs solution bubbled with 5% CO2 in O2 and maintained at 37° C. Tissues were suspended under 1.5 g resting tension. Changes of tension were measured isometrically with force transducers and recorded with a PowerLab 8/30 data acquisition system (ADlnstruments, USA). Tissues were allowed to equilibrate for 60 min during which time bath solutions were changed every 15 min.
EFS was achieved by applying 0.5 ms pulses, 5 Hz frequency, at a maximally effective voltage of 70 V. EFS was applied for 30 sec at 3 min intervals for a 30 min initial period. This initial period was separated by a […] interval with wash out of the bath solution. Then, a second period of stimulation was started. […] Responses to the agents were measured and expressed as % of the mean of three or four pre-drug responses to EFS. All compounds were dissolved at 1 mM in distilled water or MeOH, as stock solutions.
IC50 values for the inhibition of ghrelin-induced contractility by representative compounds of the invention are presented in Table 7.

[4] = Metabolic stability in human liver microsomes, Method B8; format: in vitro ADME; details: human liver microsomes 0.8 mg/mL, 5 μM compound, 37° C.
Description: B8. Metabolic Stability in Human Liver Microsomes
The liver is the primary site for phase I (oxidation) and phase II (glucuronidation) enzymatic activity responsible for xenobiotic metabolism. Human liver microsomes are used as in vitro screen of metabolic activity for candidate drugs. Similar studies can be run with microsomes from other species, such as those used for in vivo studies, to determine any significant species differences in the stability profile. The aim of this study was to measure the broad-spectrum metabolic stability of representative compounds of the invention. The key aspects of the experimental design are summarized below: • Human liver microsomes (mixed pool of 15 male and female donors) were purchased from In Vitro Technologies (Baltimore, Md.). • Microsomes characterized for phase I (Cyp2A6, 2D6, 2E1, 1A2, 2C19, 3A4, 4A) and phase II (glucuronidation) enzymatic activity. • Assays are performed using a final concentration of 0.8 mg/mL of microsomes in 100 mM potassium phosphate buffer (1.5 mM NADPH, 8 mM MgCl2, pH 7.4, 37° C.). • Compounds are tested in duplicate samples at a single concentration of 5 μM (0.05% DMSO). • Test articles are incubated with the microsomes at 37° C.

[5] = target: T3, ghrelin receptor (HEK-GHSR1 stable cells) (Homo sapiens, UniProt Q92847); experiment: Ghrelin receptor inverse agonist assay (HTRF IP-one), Method B4; format: cell-based; details: inverse agonist at the ghrelin receptor, Method B4
T3 construct: expressed in transfected cells
Summary of the method: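 HEK cells stably expressing GHSR1, seeded at 100 000 cells/well overnight, exposed to compound for 30 min at 37° C. Cells then lysed and IP1 accumulation measured by HTRF (d2 plus anti-IP1 cryptate, 1 h at room temp). Wells lacking d2 served as negative control.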

[6] = Plasma protein binding (equilibrium dialysis), Method B5; format: in vitro ADME; details: 60 min at 37° C., typically 10 μM
Description: B5. Plasma Protein Binding
The pharmacokinetic and pharmacodynamic properties of drugs are largely a function of the reversible binding of drugs to plasma or serum proteins such as albumin and α1-acid glycoprotein. In general, only unbound drug is available for diffusion or transport across cell membranes, and for interaction at the pharmacological target. On the other hand, drugs with low plasma protein binding generally have large volumes of distribution and rapid clearance since only unbound drug is available for glomerular filtration and, in some cases, hepatic clearance. Thus, the extent of plasma protein binding can influence efficacy, distribution and elimination. The ideal range for plasma protein binding is in the range of 87-98% for most drug products.
Protein binding studies were performed using human plasma. Briefly, 96-well microplates were used to incubate various concentrations of the test article for 60 min at 37° C. A concentration of 10 μM was a typical selection to be employed in this study. Bound and unbound fractions are separated by equilibrium dialysis, where the concentration remaining in the unbound fraction is quantified by LC-MS or LC-MS-MS analysis. […].

CYP3A4 = CYP3A4 (Homo sapiens, UniProt P08684); experiment: Cytochrome P450 inhibition, Method B6 (two substrates); details: read-out: IC50 CYP 3A4; Table 4b; midazolam used as substrate
[7] = Pharmacokinetic analysis (intravenous and oral), Method B9; format: in vivo; details: Table 10b; 2 mg/mL intravenous typically employed
Description: B9. Pharmacokinetic Analysis
The pharmacokinetic (PK) behavior of compounds of the invention and their pharmaceutical compositions can be ascertained by methods well known to those skilled in the art and can be used to investigate the pharmacokinetic parameters (elimination half-life, total plasma clearance, etc.) for intravenous, subcutaneous and oral administration of these substances. (Wilkinson, G. R. “Pharmacokinetics: The Dynamics of Drug Absorption, Distribution, and Elimination” in Goodman & Gilman's The Pharmacological Basis of Therapeutics, Tenth Edition, Hardman, J. G.; Limbird, L. E., Eds., McGraw Hill, Columbus, Ohio, 2001, Chapter 1.) See also U.S. Pat. Nos. 7,476,653; 7,491,695; Intl. Pat. Appl. WO 2008/033328 and U.S. Patent Appl. Publ. 2008/0194672. As an example, compound 1505 has the PK profile below.
The determination of PK parameters for additional representative compounds of the invention is presented in the Examples.
A detailed analysis of the pharmacokinetic profile of representative compounds of the invention was conducted using the procedures outlined in Method B9.
A dose level of 2 mg/mL for intravenous administration and 8 mg/mL for oral administration were typically employed.

T2 sequence (Q92847 whole entry): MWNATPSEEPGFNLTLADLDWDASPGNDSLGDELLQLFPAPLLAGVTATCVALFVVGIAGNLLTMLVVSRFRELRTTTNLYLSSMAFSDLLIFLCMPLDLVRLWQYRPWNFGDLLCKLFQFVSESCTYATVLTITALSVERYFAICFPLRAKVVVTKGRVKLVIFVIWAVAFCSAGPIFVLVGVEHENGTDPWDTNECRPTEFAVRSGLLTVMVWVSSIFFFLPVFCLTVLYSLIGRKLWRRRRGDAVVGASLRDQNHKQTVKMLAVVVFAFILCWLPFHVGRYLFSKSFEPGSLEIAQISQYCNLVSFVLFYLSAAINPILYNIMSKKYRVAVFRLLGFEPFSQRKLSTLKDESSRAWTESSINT
T1 sequence (Q92847 whole entry): as above
T3 sequence (Q92847 whole entry): as above
Chain of CYP3A4 (P08684 whole entry): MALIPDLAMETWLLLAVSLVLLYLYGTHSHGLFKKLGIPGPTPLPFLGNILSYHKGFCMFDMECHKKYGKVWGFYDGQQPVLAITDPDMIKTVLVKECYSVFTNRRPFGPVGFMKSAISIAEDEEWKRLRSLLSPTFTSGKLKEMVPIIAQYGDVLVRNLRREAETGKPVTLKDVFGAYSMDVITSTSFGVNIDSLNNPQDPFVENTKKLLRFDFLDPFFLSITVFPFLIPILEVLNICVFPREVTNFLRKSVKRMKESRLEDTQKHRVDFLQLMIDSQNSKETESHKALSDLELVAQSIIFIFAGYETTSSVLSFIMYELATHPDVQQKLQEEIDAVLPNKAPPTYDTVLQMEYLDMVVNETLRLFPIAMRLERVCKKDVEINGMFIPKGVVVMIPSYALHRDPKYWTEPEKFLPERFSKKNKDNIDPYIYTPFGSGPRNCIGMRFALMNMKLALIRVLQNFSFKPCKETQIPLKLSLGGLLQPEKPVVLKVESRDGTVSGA

| Structure (SMILES) | IC50 [1] [nM] | Antagonist Activity [2] | HLM, metabolic stability in human liver microsomes [4] [μL/min/mg protein] | IC50 [5] [nM] | other results |
| --- | --- | --- | --- | --- | --- |
| CCC(C)[C@@H]1NCCOc2ccccc2/C=C/[C@@H](C)NC(=O)[C@@H](Cc2ccccc2)NC(=O)[C@H](C(C)O)N(C)C1=O (stereo partly drawn) [Compound 1315] | 1 to 10 | C (C = 10-100 nM) | – | – | Ki [1]: 1 to 10 nM; IC50 [3]: 75 nM |
| CC(C)[C@@H]1NCCOc2ccccc2CC[C@@H](C)NC(=O)[C@@H](Cc2cccc(F)c2)NC(=O)[C@H](C(C)O)N(C)C1=O (stereo partly drawn) [Compound 1364] | – | B (B = 1-10 nM) | – | – | IC50 [3]: 200 nM |
| CC(C)[C@@H]1NCCOc2cc(F)ccc2CC[C@@H](C)NC(=O)[C@@H](Cc2ccccc2)NC(=O)[C@H](C(C)O)N(C)C1=O (stereo partly drawn) [Compound 1391] | – | A (A <1 nM) | 16.6 | – | IC50 [3]: 65 nM |
| CC(C)[C@@H]1NCCOc2cc(F)ccc2CC[C@@H](C)NC(=O)[C@@H](Cc2cccc(F)c2)NC(=O)[C@H](C(C)O)N(C)C1=O (stereo partly drawn) [Compound 1392] | – | A (A <1 nM) | 23.6 | – | IC50 [3]: 4 nM |
| CC(C)[C@@H]1NCCOc2ccccc2CC[C@@H](C)NC(=O)[C@@H](Cc2cccc(Cl)c2)NC(=O)[C@H](C(C)O)N(C)C1=O (stereo partly drawn) [Compound 1400] | – | A (A <1 nM) | 54.2 | – | IC50 [3]: 360 nM |
| CCC(C)C1NCCOc2ccccc2CCCNC(=O)C(Cc2ccc(Cl)cc2)NC(=O)C(C(C)O)N(C)C1=O (stereo not drawn) [Compound 1699] | 10 to 100 | C (C = 10-100 nM) | 85.2 | 100 to 500 | – |
| CC(C)[C@@H]1NCCOc2ccccc2C#C[C@@H](C)NC(=O)[C@@H](Cc2ccc(F)cc2)NC(=O)[C@H](C(C)O)N(C)C1=O (stereo partly drawn) [Compound 1711] | 1 to 10 | – | – | 10 to 50 | Binding (%), Human Plasma Protein Binding [6]: 97.4% |
| CCC(C)C1NCCOc2ccccc2C=CCNC(=O)C(Cc2ccc(Cl)cc2)NC(=O)C(C(C)O)N(C)C1=O (stereo not drawn) [Compound 1730] | 1 to 10 | – | 61.9 | 100 to 500 | IC50 (CYP3A4): 1600 nM |
| CCC(C)C1NCCOc2cc(F)ccc2C=CCNC(=O)C(Cc2ccc(Cl)cc2)NC(=O)C(C(C)O)N(C)C1=O (stereo not drawn) [Compound 1739] | 1 to 10 | B (B = 1-10 nM) | 26.1 | 100 to 500 | – |
| CCC(C)C1NCCOc2ccc(F)cc2C=CCNC(=O)C(Cc2ccc(Cl)cc2)NC(=O)C(C(C)O)N(C)C1=O (stereo not drawn) [Compound 1740] | 1 to 10 | C (C = 10-100 nM) | 28.3 | 100 to 500 | – |
| CC(O)[C@H]1C(=O)N[C@H](Cc2ccc(Cl)cc2)C(=O)N[C@H](C)CCc2ccccc2OCCN[C@@H](C(C)(C)C)C(=O)N1C (stereo partly drawn) [Compound 1742] | 10 to 100 | – | 157.4 | 10 to 50 | – |
| CC(O)[C@H]1C(=O)N[C@H](Cc2c[nH]c3ccccc23)C(=O)N[C@H](C)CCc2ccccc2OCCN[C@@H](C2CC2)C(=O)N1C (stereo partly drawn) [Compound 1745] | 10 to 100 | – | 117.0 | 100 to 500 | – |
| CC(C)[C@@H]1NCCOc2cc(F)ccc2CC[C@@H](C)NC(=O)[C@@H](Cc2ccc(Cl)cc2)NC(=O)[C@H](C(C)O)N(C)C1=O (stereo partly drawn) [Compound 1758] | 1 to 10 | – | 90.4 | 10 to 50 | – |
| CC[C@@H]1C#Cc2ccc(F)cc2OCCN[C@@H](C(C)C)C(=O)N(C)[C@@H](C(C)O)C(=O)N[C@H](Cc2ccccc2)C(=O)N1 (stereo partly drawn) [Compound 1759] | 1 to 10 | – | 40.6 | 50 to 100 | Cl [7]: 14 ± 2 mL/min/kg; t1/2 [7]: 1.98 ± 1.68 h |
| CC[C@@H]1C#Cc2ccc(F)cc2OCCN[C@@H](C(C)C)C(=O)N(C)[C@@H](C(C)O)C(=O)N[C@H](Cc2cccc(F)c2)C(=O)N1 (stereo partly drawn) [Compound 1760] | 1 to 10 | – | 34.8 | 50 to 100 | – |
| CCC(C)C1NCCOc2ccccc2C=CCNC(=O)C(Cc2ccc(Cl)cc2Cl)NC(=O)C(C(C)O)N(C)C1=O (stereo not drawn) [Compound 1761] | 10 to 100 | – | 77.0 | 50 to 100 | – |
| CC(O)[C@H]1C(=O)N[C@H](Cc2c[nH]c3ccccc23)C(=O)N[C@H](C)CCc2ccccc2OCCN[C@@H](C(C)(C)C)C(=O)N1C (stereo partly drawn) [Compound 1762] | 10 to 100 | – | 73.4 | 100 to 500 | – |
